Source: ChEMBL document CHEMBL6078632, “Discovery of Janus Kinase and Histone Deacetylase Dual Inhibitors as a New Strategy to Treat Psoriasis” (J Med Chem, 2024)
Calls of active or inactive are those of the source. The rule behind the calls is not given here.

Columns and labels:
[1] = molecular target: T1, Tyrosine-protein kinase JAK2 (Homo sapiens, UniProt O60674); test: Inhibition of JAK2 (unknown origin) using FAM-labelled peptide and ATP at 100 nM measured after 25 mins incubation relative to control
Histone deacetylase 1 = Histone deacetylase 1 (Homo sapiens, UniProt Q13547); test: Inhibition of recombinant human HDAC1 using (Ac-Leu-Gly-Lys(Ac)-AMC as substrate measured after 30 mins by fluorescence assay
HaCaT = test: cells; settings: Homo sapiens, 48 h
Description: Antiproliferative activity against human HaCAT cells assessed as inhibition of TNFalpha-induced proliferation measured after 48 hrs by CCK-8 assay

RAW264.7 [2] = test: cells; assay type: functional; settings: Mus musculus, time 24 hrs
Description: Antiinflammatory activity in mouse RAW264.7 cells assessed as inhibition of LPS-induced NO release at 0.4 uM incubated for 24 hrs relative to control

[3] = Antiproliferative activity against HUVEC cells; settings: human
RAW264.7 [4] = test: Antiinflammatory activity in mouse RAW264.7 cells assessed as inhibition of LPS-induced NO release at 0.20 uM incubated for 24 hrs relative to control; assay type: functional
RAW264.7 [5] = test: Antiinflammatory activity in mouse RAW264.7 cells assessed as inhibition of LPS-induced NO release at 0.10 uM incubated for 24 hrs relative to control; assay type: functional
RAW264.7 [6] = test: Antiinflammatory activity in mouse RAW264.7 cells assessed as inhibition of LPS-induced TNFalpha release at 0.9 uM incubated for 24 hrs by ELISA; assay type: functional, cell-based
RAW264.7 [7] = test: Antiinflammatory activity in mouse RAW264.7 cells assessed as inhibition of LPS-induced IL-12 release at 0.9 uM incubated for 24 hrs by ELISA; assay type: functional, cell-based
RAW264.7 [8] = test: Antiinflammatory activity in mouse RAW264.7 cells assessed as inhibition of LPS-induced IFN-gamma release at 0.9 uM incubated for 24 hrs by ELISA; assay type: functional, cell-based
[9] = molecular target: T1, Tyrosine-protein kinase JAK2; test: Inhibition of JAK2 (unknown origin) using FAM-labelled peptide and ATP measured after 25 mins incubation relative to control
[10] = molecular target: T2, Tyrosine-protein kinase JAK3 (Homo sapiens, UniProt P52333); test: Inhibition of JAK3 (unknown origin) using FAM-labelled peptide and ATP measured after 25 mins incubation relative to control
T2 sequence (P52333 whole entry): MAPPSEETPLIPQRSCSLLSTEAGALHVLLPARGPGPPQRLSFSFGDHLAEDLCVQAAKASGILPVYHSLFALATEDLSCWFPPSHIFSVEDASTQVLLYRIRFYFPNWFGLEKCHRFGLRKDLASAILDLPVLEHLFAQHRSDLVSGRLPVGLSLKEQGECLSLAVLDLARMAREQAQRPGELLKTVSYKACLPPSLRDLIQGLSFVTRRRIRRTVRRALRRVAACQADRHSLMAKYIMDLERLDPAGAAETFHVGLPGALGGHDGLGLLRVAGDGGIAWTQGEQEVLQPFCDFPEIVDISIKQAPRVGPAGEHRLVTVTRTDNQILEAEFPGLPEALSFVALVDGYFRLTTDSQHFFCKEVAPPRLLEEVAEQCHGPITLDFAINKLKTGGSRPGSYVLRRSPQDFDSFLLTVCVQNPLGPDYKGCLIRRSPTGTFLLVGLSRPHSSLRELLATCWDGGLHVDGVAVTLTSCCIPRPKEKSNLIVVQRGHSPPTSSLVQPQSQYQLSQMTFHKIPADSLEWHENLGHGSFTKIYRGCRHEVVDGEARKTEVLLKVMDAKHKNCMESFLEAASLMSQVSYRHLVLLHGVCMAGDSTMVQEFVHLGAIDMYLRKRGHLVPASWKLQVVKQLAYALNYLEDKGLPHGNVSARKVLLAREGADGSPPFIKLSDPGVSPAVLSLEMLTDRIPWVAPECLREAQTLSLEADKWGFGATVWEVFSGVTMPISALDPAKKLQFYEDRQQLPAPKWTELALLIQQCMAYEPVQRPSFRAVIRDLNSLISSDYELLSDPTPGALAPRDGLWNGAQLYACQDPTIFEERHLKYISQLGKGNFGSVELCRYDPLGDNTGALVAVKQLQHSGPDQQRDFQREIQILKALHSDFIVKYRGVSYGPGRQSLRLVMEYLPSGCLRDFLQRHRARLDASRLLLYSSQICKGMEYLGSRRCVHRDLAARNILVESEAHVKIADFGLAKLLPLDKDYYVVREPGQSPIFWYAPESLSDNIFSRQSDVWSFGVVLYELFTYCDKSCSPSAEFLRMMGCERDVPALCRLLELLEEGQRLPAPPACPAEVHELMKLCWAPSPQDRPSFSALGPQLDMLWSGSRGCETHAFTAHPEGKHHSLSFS

[11] = molecular target: Non-receptor tyrosine-protein kinase TYK2 (Homo sapiens, UniProt P29597); test: Inhibition of TYK2 (unknown origin) using FAM-labelled peptide and ATP measured after 25 mins incubation relative to control
[12] = molecular target: Platelet-derived growth factor receptor alpha (Homo sapiens) (UniProt P16234); test: Inhibition of PDGFRalpha (unknown origin) at 10 nM relative to control
[13] = Metabolic stability of the compound in female ICR mouse liver microsomes assessed as half life at 1 uM measured up to 45 mins by LC-MS/MS analysis; assay type: ADME
[14] = Metabolic stability of the compound in female ICR mouse liver microsomes assessed as clearance at 1 uM measured up to 45 mins by LC-MS/MS analysis; assay type: ADME; settings: read-out: CLH
Mus musculus [15] = test: Antipsoriatic activity against imiquimod-induced psoriasis BALB/c mouse model assessed as improvement in psoriatic symptom at 0.25 to 0.5 % applied topically back of the mouse for 7 consecutive days; assay type: functional, organism-based; settings: dose 0.25-0.5 %, route top
Mus musculus [16] = test: Antipsoriatic activity against imiquimod-induced psoriasis BALB/c mouse model assessed as improvement in psoriatic symptom at 0.25 % applied topically back of the mouse for 7 consecutive days; assay type: functional, organism-based; settings: route top
Mus musculus [17] = test: Antipsoriatic activity against imiquimod-induced psoriasis BALB/c mouse model assessed as reduction in skin thickness at 0.25 % applied topically back of the mouse for 7 consecutive days by hematoxylin and eosin staining based histological analysis; assay type: functional, organism-based; settings: route top
Mus musculus [18] = test: Antipsoriatic activity against imiquimod-induced psoriasis BALB/c mouse model assessed as reduction in epidermal thickness applied topically back of the mouse for 7 consecutive days by hematoxylin and eosin staining based histological analysis; assay type: functional, organism-based; settings: dose 0.25-0.5 %, route top
[19] = Acute toxicity in BALB/c mouse assessed as animal death at 7508 mg/kg; assay type: organism-based; settings: in vivo
[20] = Acute toxicity in BALB/c mouse assessed as animal death; settings: in vivo
Histone deacetylase 8 = molecular target: T3, Histone deacetylase 8 (Homo sapiens, UniProt Q9BY41); test: Inhibition of recombinant human HDAC8 using (Ac-Leu-Gly-Lys(Tfa)-AMC as substrate measured after 30 mins by fluorescence assay
T3 sequence (Q9BY41 whole entry): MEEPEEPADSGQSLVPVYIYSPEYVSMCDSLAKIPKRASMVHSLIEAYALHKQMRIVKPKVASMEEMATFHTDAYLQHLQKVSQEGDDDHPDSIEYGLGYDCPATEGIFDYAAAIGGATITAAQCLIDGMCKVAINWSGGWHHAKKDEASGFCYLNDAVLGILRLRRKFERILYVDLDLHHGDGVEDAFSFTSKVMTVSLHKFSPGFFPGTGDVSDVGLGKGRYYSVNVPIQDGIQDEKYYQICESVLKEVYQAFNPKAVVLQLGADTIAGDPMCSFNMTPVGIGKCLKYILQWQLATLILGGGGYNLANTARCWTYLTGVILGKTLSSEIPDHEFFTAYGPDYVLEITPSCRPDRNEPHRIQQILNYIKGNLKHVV

Mus musculus [21] = test: Antipsoriatic activity against imiquimod-induced psoriasis BALB/c mouse model assessed as improvement in psoriatic symptom at 0.5 % applied topically back of the mouse for 7 consecutive days; assay type: functional, organism-based; settings: route top
Mus musculus [22] = test: Antipsoriatic activity against imiquimod-induced psoriasis BALB/c mouse model assessed as reduction in skin thickness at 0.5 % applied topically back of the mouse for 7 consecutive days by hematoxylin and eosin staining based histological analysis; assay type: functional, organism-based; settings: route top
[23] = Antiproliferative activity against human LO2 cells; assay type: toxicity, cell-based, L02

T1 sequence (O60674 whole entry): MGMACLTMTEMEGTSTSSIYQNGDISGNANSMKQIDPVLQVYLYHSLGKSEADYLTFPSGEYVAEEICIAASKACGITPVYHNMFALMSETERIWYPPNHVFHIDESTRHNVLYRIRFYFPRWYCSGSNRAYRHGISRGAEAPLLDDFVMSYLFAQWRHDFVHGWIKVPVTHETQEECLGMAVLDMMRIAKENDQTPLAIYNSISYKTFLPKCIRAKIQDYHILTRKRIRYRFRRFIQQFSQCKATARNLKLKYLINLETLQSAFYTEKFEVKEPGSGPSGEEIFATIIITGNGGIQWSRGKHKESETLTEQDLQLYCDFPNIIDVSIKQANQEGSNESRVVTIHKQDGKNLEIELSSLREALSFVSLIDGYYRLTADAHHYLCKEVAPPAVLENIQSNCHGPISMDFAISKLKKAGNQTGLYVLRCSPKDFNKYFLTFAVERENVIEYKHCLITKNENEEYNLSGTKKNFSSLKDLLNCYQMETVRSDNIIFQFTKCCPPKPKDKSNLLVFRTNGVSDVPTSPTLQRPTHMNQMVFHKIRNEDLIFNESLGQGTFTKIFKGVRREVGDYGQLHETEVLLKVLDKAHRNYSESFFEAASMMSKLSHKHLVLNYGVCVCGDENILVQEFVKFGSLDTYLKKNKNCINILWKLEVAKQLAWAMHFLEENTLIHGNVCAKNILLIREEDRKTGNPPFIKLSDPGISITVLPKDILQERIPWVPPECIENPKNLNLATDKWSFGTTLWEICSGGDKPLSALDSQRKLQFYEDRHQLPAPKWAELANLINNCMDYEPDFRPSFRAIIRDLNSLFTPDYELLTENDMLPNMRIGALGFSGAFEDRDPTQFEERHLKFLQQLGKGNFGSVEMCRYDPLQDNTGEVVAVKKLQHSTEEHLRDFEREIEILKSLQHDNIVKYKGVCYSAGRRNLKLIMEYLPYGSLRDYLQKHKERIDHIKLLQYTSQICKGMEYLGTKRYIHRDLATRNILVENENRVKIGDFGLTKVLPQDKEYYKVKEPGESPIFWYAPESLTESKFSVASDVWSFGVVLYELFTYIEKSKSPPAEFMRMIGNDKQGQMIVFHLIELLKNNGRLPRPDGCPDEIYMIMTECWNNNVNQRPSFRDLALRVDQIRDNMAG
Histone deacetylase 1, sequence (Q13547 whole entry): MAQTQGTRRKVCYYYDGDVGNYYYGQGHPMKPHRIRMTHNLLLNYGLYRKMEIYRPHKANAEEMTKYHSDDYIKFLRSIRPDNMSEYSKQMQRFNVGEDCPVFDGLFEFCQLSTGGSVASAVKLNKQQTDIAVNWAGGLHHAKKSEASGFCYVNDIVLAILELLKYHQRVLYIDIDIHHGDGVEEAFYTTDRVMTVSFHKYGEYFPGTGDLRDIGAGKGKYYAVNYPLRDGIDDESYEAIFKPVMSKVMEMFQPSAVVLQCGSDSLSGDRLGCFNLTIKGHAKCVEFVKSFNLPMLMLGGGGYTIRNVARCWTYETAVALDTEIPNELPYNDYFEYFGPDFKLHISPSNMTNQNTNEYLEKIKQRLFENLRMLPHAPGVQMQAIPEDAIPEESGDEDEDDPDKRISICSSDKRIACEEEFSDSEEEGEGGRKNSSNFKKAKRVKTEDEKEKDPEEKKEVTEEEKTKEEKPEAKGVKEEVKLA
Non-receptor tyrosine-protein kinase TYK2, sequence (P29597 whole entry): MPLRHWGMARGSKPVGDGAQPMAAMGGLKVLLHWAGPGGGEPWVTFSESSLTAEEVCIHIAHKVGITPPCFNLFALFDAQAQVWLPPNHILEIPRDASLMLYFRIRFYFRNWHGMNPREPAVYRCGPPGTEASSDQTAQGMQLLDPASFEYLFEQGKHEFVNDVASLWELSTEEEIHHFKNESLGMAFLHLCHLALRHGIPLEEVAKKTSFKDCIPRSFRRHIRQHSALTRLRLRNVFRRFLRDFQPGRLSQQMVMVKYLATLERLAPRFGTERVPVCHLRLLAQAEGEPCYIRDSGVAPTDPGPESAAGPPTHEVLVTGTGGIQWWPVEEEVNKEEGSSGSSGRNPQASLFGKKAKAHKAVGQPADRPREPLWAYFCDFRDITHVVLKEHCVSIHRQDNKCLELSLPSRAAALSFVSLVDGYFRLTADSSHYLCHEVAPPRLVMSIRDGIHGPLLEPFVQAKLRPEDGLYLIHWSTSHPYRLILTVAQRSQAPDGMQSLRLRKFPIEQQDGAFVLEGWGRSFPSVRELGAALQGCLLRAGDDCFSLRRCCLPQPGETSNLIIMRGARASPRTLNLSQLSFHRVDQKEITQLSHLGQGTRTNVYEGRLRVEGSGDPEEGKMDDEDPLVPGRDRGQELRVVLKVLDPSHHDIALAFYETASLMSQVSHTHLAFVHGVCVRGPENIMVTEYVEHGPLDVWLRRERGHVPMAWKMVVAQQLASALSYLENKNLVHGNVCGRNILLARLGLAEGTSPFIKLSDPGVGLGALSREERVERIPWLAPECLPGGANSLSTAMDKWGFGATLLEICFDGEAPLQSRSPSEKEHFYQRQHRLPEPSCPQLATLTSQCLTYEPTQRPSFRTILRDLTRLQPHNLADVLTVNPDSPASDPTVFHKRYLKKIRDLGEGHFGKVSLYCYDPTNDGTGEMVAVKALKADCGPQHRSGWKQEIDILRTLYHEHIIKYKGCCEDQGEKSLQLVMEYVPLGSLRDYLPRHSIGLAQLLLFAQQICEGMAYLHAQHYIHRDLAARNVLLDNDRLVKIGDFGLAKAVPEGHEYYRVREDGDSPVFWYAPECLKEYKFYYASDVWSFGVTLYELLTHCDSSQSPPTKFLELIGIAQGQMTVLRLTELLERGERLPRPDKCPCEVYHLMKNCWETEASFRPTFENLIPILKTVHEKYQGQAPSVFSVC
Platelet-derived growth factor receptor alpha (Homo sapiens), sequence (P16234 whole entry): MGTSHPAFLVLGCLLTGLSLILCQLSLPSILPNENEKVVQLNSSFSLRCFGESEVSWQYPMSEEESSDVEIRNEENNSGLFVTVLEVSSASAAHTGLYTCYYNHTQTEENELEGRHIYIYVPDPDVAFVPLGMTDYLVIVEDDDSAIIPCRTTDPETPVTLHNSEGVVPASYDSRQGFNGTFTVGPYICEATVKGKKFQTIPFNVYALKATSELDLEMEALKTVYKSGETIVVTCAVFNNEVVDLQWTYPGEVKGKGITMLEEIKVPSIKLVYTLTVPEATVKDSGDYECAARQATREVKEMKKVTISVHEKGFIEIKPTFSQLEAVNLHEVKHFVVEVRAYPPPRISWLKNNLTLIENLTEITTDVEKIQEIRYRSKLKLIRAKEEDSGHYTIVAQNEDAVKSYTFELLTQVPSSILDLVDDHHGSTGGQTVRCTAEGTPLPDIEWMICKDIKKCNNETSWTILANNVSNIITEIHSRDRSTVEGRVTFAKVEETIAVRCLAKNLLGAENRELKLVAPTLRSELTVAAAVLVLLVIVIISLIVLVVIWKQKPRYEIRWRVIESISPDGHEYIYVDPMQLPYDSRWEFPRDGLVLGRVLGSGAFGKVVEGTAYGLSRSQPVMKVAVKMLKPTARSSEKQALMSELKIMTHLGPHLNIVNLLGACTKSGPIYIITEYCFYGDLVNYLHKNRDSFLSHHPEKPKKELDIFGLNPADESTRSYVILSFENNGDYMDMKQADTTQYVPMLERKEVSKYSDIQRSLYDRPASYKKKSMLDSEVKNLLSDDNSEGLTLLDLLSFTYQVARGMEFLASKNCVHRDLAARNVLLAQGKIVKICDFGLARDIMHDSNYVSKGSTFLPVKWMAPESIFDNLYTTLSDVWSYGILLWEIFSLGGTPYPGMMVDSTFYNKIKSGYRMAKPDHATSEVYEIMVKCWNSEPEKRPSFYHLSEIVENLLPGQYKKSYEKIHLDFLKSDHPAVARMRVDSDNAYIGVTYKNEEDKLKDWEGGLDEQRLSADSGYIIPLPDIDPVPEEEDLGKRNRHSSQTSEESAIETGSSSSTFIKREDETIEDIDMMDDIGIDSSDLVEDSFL

Structure (SMILES) | inhibition [1] | IC50 (HaCaT) | inhibition at 0.4 µM (RAW264.7 [2]) | other results
CS(=O)(=O)Nc1ccc(-c2ccnc(Nc3ccc(-c4cn(CC(=O)Nc5ccc(C(=O)NO)cc5)nn4)cc3)n2)cc1 | 98% | > 50 µM |  | IC50 (Histone deacetylase 1): > 2 µM
CS(=O)(=O)Nc1ccc(-c2ccnc(Nc3ccc(N4CCN(CC(=O)NCCCCC(=O)NO)CC4)cc3)n2)cc1 | 98% | 16 µM |  | 
CS(=O)(=O)Nc1ccc(-c2ccnc(Nc3ccc(N4CCN(CC(=O)NCCCC(=O)NO)CC4)cc3)n2)cc1 | 100% | 17 µM |  | 
CS(=O)(=O)Nc1ccc(-c2ccnc(Nc3ccc(-c4cn(CC(=O)NO)nn4)cc3)n2)cc1 | 99% | > 50 µM |  | IC50 (Histone deacetylase 1): > 2 µM
CS(=O)(=O)Nc1ccc(-c2ccnc(Nc3ccc(-c4cn(CC(=O)NCCCCCCC(=O)NO)nn4)cc3)n2)cc1 | 99% | > 50 µM |  | 
N#CCNC(=O)c1ccc(-c2ccnc(Nc3ccc(N4CCOCC4)cc3)n2)cc1 [MOMELOTINIB] |  | 13 µM | 94.8% | IC50 (Histone deacetylase 1): 0.04 µM; IC50 [3]: 7.3 µM
CS(=O)(=O)Nc1ccc(-c2ccnc(Nc3ccc(-c4cn(CC(=O)NCCCCC(=O)NO)nn4)cc3)n2)cc1 | 98% | > 50 µM |  | 
CS(=O)(=O)Nc1ccc(-c2ccnc(Nc3ccc(-c4cn(CC(=O)NCCC(=O)NO)nn4)cc3)n2)cc1 | 97% | > 50 µM |  | 
CS(=O)(=O)Nc1ccc(-c2ccnc(Nc3ccc(N4CCN(CC(=O)NCCCCCC(=O)NO)CC4)cc3)n2)cc1 | 99% | 9.6 µM |  | 
CS(=O)(=O)Nc1ccc(-c2ccnc(Nc3ccc(N4CCN(CC(=O)Nc5ccc(C(=O)NO)cc5)CC4)cc3)n2)cc1 | 99% | 1.2 µM | 105% | inhibition at 0.2 µM (RAW264.7 [4]): 105%; inhibition at 0.1 µM (RAW264.7 [5]): 105%; Activity (RAW264.7 [6]): Active; Activity (RAW264.7 [7]): Active; Activity (RAW264.7 [8]): Active; IC50 [9]: 0.00049 µM; IC50 [10]: 0.0056 µM; IC50 [11]: 0.0026 µM; inhibition [12]: > 50%; half-life at 1 µM [13]: 39.8 min; CLint scaled at 1 µM [14]: 138 mL/min/kg; Activity (Mus musculus [15]): Active; Activity (Mus musculus [16]): Active; Compound Showed Better Activity Than 11G And Vorinostat/Momelotinib Control; Activity (Mus musculus [17]): Active; Activity (Mus musculus [18]): Dose-dependent-effect; IC50 [3]: 10 µM; Activity [19]: Non-toxic; LD50 [20]: > 7510 mg/kg
CS(=O)(=O)Nc1ccc(-c2ccnc(Nc3ccc(N4CCN(CC(=O)Nc5ccc(C(=O)NO)s5)CC4)cc3)n2)cc1 | 99% | 1.4 µM | 82.1% | 
C[C@@H]1CCN(C(=O)CC#N)C[C@@H]1N(C)c1ncnc2[nH]ccc12 [TOFACITINIB] |  | > 50 µM |  | 
CS(=O)(=O)Nc1ccc(-c2ccnc(Nc3ccc(N4CCN(CC(=O)NCCCCCCCC(=O)NO)CC4)cc3)n2)cc1 | 100% | 10 µM | 71.3% | 
CS(=O)(=O)Nc1ccc(-c2ccnc(Nc3ccc(N4CCN(CC(=O)NCCCCCCC(=O)NO)CC4)cc3)n2)cc1 | 99% | 5.3 µM | 73.9% | 
CS(=O)(=O)Nc1ccc(-c2ccnc(Nc3ccc(N4CCN(CC(=O)NCCC(=O)NO)CC4)cc3)n2)cc1 | 99% | > 50 µM |  | IC50 (Histone deacetylase 1): > 2 µM
CS(=O)(=O)Nc1ccc(-c2ccnc(Nc3ccc(-c4cn(CC(=O)NCCCCCC(=O)NO)nn4)cc3)n2)cc1 | 98% | > 50 µM |  | 
CS(=O)(=O)Nc1ccc(-c2ccnc(Nc3ccc(N4CCN(CC(=O)Nc5ccc(/C=C/C(=O)NO)cc5)CC4)cc3)n2)cc1 | 99% |  | 110% | inhibition at 0.2 µM (RAW264.7 [4]): 105%; inhibition at 0.1 µM (RAW264.7 [5]): 82.1%; Activity (RAW264.7 [6]): Active; Activity (RAW264.7 [7]): Active; Activity (RAW264.7 [8]): Active; IC50 [9]: 0.00072 µM; IC50 [10]: 0.0079 µM; IC50 [11]: 0.0044 µM; IC50 (Histone deacetylase 8): > 1 µM; half-life at 1 µM [13]: 56.3 min; CLint scaled at 1 µM [14]: 97.5 mL/min/kg; Activity (Mus musculus [21]): Active; Activity (Mus musculus [22]): Active; Activity (Mus musculus [17]): Active; IC50 [23]: 5 µM
CS(=O)(=O)Nc1ccc(-c2ccnc(Nc3ccc(-c4cn(CC(=O)NCCCCCCCC(=O)NO)nn4)cc3)n2)cc1 |  | > 50 µM |  | 
CS(=O)(=O)Nc1ccc(-c2ccnc(Nc3ccc(N4CCN(CC(=O)NO)CC4)cc3)n2)cc1 | 99% | 10 µM |  | IC50 (Histone deacetylase 1): > 2 µM
CS(=O)(=O)Nc1ccc(-c2ccnc(Nc3ccc(-c4cn(CC(=O)NCCCC(=O)NO)nn4)cc3)n2)cc1 | 99% | > 50 µM |  | 
